Read-outs that look alike come from different tables or passages of the source.
Tests used:
[1] = Test compounds' PK assay in ICR mice; format: in vivo; conditions: mouse, plasma; for AUC(0-t): AUC in 0-24 hours; for AUC(0-inf): AUC in 0 hour to infinite time; for Vd: read-out: Vss; for bioavailability: read-out: F (absolute bioavailability)
Description: The test compounds were poured into ICR mice stomach through mouth with 10 mg/kg or administered 2 mg/kg or 10 mg/kg to ICR mice by tail-intravenous injection. Blood sample of orbital vein was taken at 0.083, 0.25, 0.5, 1, 2, 4, 6, 8 and 24 hours after administration, and collected in anticoagulation tube added with EDTA-K2. The test compounds were extracted from plasma samples and chromatographed on a tandem mass spectrometer. Quantitation was performed using multiple reaction monitoring (MRM). Pharmacokinetic parameters were calculated using WinNonlin 6.1 software with non compartment model.

[2] = system: HBV; assay: In-vitro anti-HBV activity in stable HBV-producing cell line (HepG2.2.15), HBV DNA in culture fluid by qPCR; format: cell-based; conditions: Hepatitis B virus, 168 h; 500 nmol final concentration, HepG2.2.15 cells, HBV DNA in culture media on day 7 post seeding, vs DMSO control; read-out: HBV (% Inh.) (500 nmol)
Description: In-Vitro Anti-HBV Activity of Compounds in Stable HBV-Producing Cell Line (HepG2.2.15)
HBV DNA contents in cell culture fluid were detected by the qPCR-based assay and percents of HBV inhibition by compounds (% Inh) were calculated. Specific procedures are as follows:
HepG2.2.15 cells were seeded into each well of 96-well plates, 40,000 cells per well. Cells were treated with cell culture medium containing compounds 24 hours after cell seeding. Each compound to detected percent inhibition was in duplicate and the final concentration of each compound was 500 nmol in each well. The compound-containing mediums were refreshed on day 4 post cell seeding. Culture media were collected from the HepG2.2.15 plates on day 7 post cell seeding followed by HBV DNA extraction.
HBV DNA extraction: using QIAamp 96 DNA Blood Kit (QIAGEN 51161).
PCR for quantification: PCR mix was prepared according to PCR system; PCR mix was dispensed to 384-well optical reaction plates (special for quantification); The standard diluted proportionally was added; The sample was added; The plates were sealed with optical adhesive film; PCR system was performed according to programs.
Percent of HBV inhibition of DNA replication by compound was calculated using the following equation: % Inh.=[1-HBV DNA quantity of sample/HBV DNA quantity of DMSO control]*100. II. Assay Results

CCOC(=O)C1=C(CN2CCOC(CC(=O)O)C2)NC(c2nccs2)=NC1c1ccc(F)cc1Br (centres unmarked) [Example 74, 2-(4-((6-(2-bromo-4-fluorophenyl)-5-(ethoxycarbonyl)-2-(thiazol-2-yl)-3,6-dihydropyrimidin-4-yl)methyl)morpholin-2-yl)acetic acid]
clearance ([1]; iv, 10 mg/kg): 15.5 mL/min/kg | half-life ([1]; iv, 10 mg/kg): 1.02 h | AUC(0-t) ([1]; iv, 10 mg/kg): 10600 ng·h/mL | AUC(0-inf) ([1]; iv, 10 mg/kg): 11200 ng·h/mL | Vd ([1]; iv, 10 mg/kg): 0.82 L/kg | Cmax ([1]; po, 10 mg/kg): 7330 ng/mL | Tmax ([1]; po, 10 mg/kg): 0.25 h | half-life ([1]; po, 10 mg/kg): 1.18 h | AUC(0-t) ([1]; po, 10 mg/kg): 7890 ng·h/mL | AUC(0-inf) ([1]; po, 10 mg/kg): 8160 ng·h/mL | bioavailability ([1]; po, 10 mg/kg): 74.2% | inhibition at 0.5 µM [2]: 91.7%

CCOC(=O)C1=C(CN2CCOC(CCC(=O)O)C2)NC(c2nccs2)=NC1c1ccc(F)cc1Br (centres unmarked) [Example 129, 3-(4-((6-(2-bromo-4-fluorophenyl)-5-(ethoxycarbonyl)-2-(thiazol-2-yl)-3,6-dihydropyrimidin-4-yl)methyl)morpholin-2-yl)propanoic acid]
Cmax ([1]; iv, 2 mg/kg): 3860 ng/mL | Tmax ([1]; iv, 2 mg/kg): 0.08 h | clearance ([1]; iv, 2 mg/kg): 20.3 mL/min/kg | half-life ([1]; iv, 2 mg/kg): 2.42 h | AUC(0-t) ([1]; iv, 2 mg/kg): 1630 ng·h/mL | AUC(0-inf) ([1]; iv, 2 mg/kg): 1640 ng·h/mL | Vd ([1]; iv, 2 mg/kg): 0.9 L/kg | Cmax ([1]; po, 10 mg/kg): 8610 ng/mL | Tmax ([1]; po, 10 mg/kg): 0.08 h | half-life ([1]; po, 10 mg/kg): 6.62 h | AUC(0-t) ([1]; po, 10 mg/kg): 5330 ng·h/mL | AUC(0-inf) ([1]; po, 10 mg/kg): 5350 ng·h/mL | bioavailability ([1]; po, 10 mg/kg): 65.2% | inhibition at 0.5 µM [2]: 92%

Source: patent US9340538B2, “Dihydropyrimidine compounds and their application in pharmaceuticals” (SUNSHINE LAKE PHARMA CO., LTD., priority 2013, dated 2016)
